Counter-ions that a name gives are not always drawn. Like-named read-outs stand apart in the source and are kept apart here.
What was measured:
[1] = biological target: His-tagged KRAS G12D protein (Homo sapiens (Human), UniProt P01116, G12D); assay: KRAS G12D TR-FRET Assay; format: binding
How it was run: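 His-tagged KRAS G12D (diluted to 20 nM in pH 7.4 HEPES buffer with 10 mM MgCl2 and 10 μM GDP) was preincubated with titrated compound for 30 min at room temperature. Biotinylated KRPep-2d peptide (diluted to 20 nM) was then added for 1 h, and displacement was monitored by TR-FRET.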

[2] = biological target: GDP-bound KRAS protein (aa 1-169), containing both G12D and C118A amino acid substitutions (Homo sapiens (Human), UniProt P01116, C118A/G12D); assay: KRAS G12D Coupled Nucleotide Exchange Assay; format: biochemical
GDP-bound KRAS protein (aa 1-169), containing both G12D and C118A amino acid substitutions, sequence (P01116 other isoform, or with tags, fused parts or gaps G12D/C118A): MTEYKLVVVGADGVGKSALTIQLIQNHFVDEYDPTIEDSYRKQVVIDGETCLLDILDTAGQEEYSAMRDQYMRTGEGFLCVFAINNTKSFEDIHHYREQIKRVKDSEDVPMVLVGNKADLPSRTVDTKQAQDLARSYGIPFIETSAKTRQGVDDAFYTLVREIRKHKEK

[3] = test system: Phosphorylation of ERK1/2 in AsPC-1 cells; assay: Phospho-ERK1/2 MSD Assay; format: cell-based, human
How it was run: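 Read-out: MSD electrochemiluminescent detection of phosphorylated ERK1/2 in whole-cell lysates, fitted to a 4-parameter logistic curve for IC50. Prior to lysis, AsPC-1 cells (25,000 per well) received a 2 h compound dose-response at 37 °C.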

[4] = test system: AsPC-1 cells; assay: AsPC-1 CTG Assay (CellTiter-Glo cell viability); format: cell-based, human; details: first value of the cell, read-out: G12D/C/V Cell Proliferation CTG (72 h) AsPC-1
How it was run: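 Human pancreatic AsPC-1 or colon SW620 cells in RPMI 1640 with 10% FBS, seeded overnight, then exposed to serially diluted compound for 72 h at 37 °C. CellTiter-Glo luminescence normalized to DMSO control; IC50 from a 4-parameter logistic model.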

[5] = read-out: KRAS G12D Binding IC50
[6] = read-out: KRAS G12D Coupled Exchange IC50
[7] = Homo sapiens, ASPC1, 2 h, read-out: 2 h p-ERK (AsPC-1 cells), IC50
[8] = Homo sapiens, ASPC1, 72 h, AsPC-1, 72 h

His-tagged KRAS G12D protein, sequence (P01116 other isoform, or with tags, fused parts or gaps G12D): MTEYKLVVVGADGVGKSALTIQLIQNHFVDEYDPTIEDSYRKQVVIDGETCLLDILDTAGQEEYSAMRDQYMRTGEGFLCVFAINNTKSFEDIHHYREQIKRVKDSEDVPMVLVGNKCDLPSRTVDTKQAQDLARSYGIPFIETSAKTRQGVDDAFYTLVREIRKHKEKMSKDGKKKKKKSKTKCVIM

| IC50 ([1]; TR-FRET, read-out: KRAS G12D Binding) [nM] | IC50 ([2]; 2 hours compound pre-incubation, read-out: KRAS G12D Coupled Exchange) [nM] | IC50 ([3]; Homo sapiens, ASPC1, 2 h, read-out: 2 h p-ERK (AsPC-1 cells)) [nM] | IC50 ([4]; Homo sapiens, ASPC1, 72 h, AsPC-1 cells (G12D), 72 h) [nM] | IC50 [1, 5] [nM] | IC50 [2, 6] [nM] | IC50 [3, 7] [nM] | IC50 [4, 8] [nM] | IC50 ([3]; 2 h, read-out: 2 h p-ERK (AsPC-1 cells), IC50) [nM] | IC50 ([4]; AsPC-1, 72 h) [nM] | Structure (SMILES) |
| --- | --- | --- | --- | --- | --- | --- | --- | --- | --- | --- |
| 5 | 4 | 41.2 | 174 | – | – | – | – | – | – | CN(C)CC1(COc2nc3c4cnc(c(F)c4n2)-c2c(c(Cl)cc4[nH]ncc24)CCCCO[C@H]2C[C@]4(CCCN3C4)C2)CC1 [Example 405, 1-(1-((((1S,3R)-10-chloro-32-fluoro-4-oxa-13,14,19,23,25,27-hexaazaheptacyclo[25.3.1.1~1,3~.1~18,22~.0~9,17~.0~12,16~.0~21,26~]tritriaconta-9,11,14,16,18(32),19,21,23,25-nonaen-24-yl)oxy)methyl)cyclopropyl)-N,N-dimethylmethanamine] |
| – | – | – | – | 8 | 3 | 5.7 | 156 | – | – | CN1CCC[C@H]1COc1nc2c3cnc(c(F)c3n1)-c1cc(O)cc3ccc(F)c(c13)CCOC(=O)O[C@]1(C)COCCN2C1 [Example 344, (16S)-23,32-difluoro-28-hydroxy-16-methyl-8-(((2S)-1-methyl-2-pyrrolidinyl)methoxy)-14,17,19-trioxa-3,7,9,11-tetraazahexacyclo[20.7.1.1~2,6~.1~11,16~.0~5,10~.0~26,30~]dotriaconta-1(30),2(32),3,5,7,9,22,24,26,28-decaen-18-one] |
| – | – | – | – | 12 | 8 | 155 | 1050 | – | – | C[C@@]12CCCN(C1)c1nc(OC[C@@]34CCCN3C[C@H](F)C4)nc3c(F)c(ncc13)-c1cccc3ccc(F)c(c13)CCC(F)C(=O)N2 (mixture of isomers) [Example 11] |
| – | – | – | – | 5 | 2 | 41.3 | 788 | – | – | O=C1N[C@@H]2C[C@H](O)CN(C2)c2nc(OC[C@@]34CCCN3C[C@H](F)C4)nc3c(F)c(ncc23)-c2c(c(Cl)cc3[nH]ncc23)CCCO1 [Example 284, (17R,19S)-9-chloro-30-fluoro-24-(((2R,7aS)-2-fluorotetrahydro-1H-pyrrolo[1,2-a]pyrrol-7a(5H)-yl)methoxy)-19-hydroxy-14-oxa-5,6,16,21,23,25,29-heptaazahexacyclo[24.3.1.1~17,21~.0~2,10~.0~3,7~.0~22,27~]hentriaconta-1(30),2,4,7,9,22,24,26,28-nonaen-15-one] |
| – | – | – | – | 6 | 3 | 114 | 910 | – | – | Fc1c2ncc3c(nc(OC[C@@]45CCCN4C[C@H](F)C5)nc13)N1CCC[C@@H](CCOCCCc3c(Cl)cc4[nH]ncc4c3-2)C1 [Example 139] |
| – | – | – | – | 16 | 11 | 250 | 606 | – | – | O=C1CCCCc2c(Cl)cc3[nH]ncc3c2-c2ncc3c(nc(OC[C@@]45CCCN4C[C@H](F)C5)nc3c2F)N2CC3CCN1C(C3)C2 (stereo partly drawn) [Example 269] |
| – | – | – | – | 5 | 2 | – | – | 30.5 | 318 | O=C1OCCCc2c(Cl)cc3[nH]ncc3c2-c2ncc3c(nc(OC[C@@]45CCCN4C[C@H](F)C5)nc3c2F)N2CCC[C@]3(C2)C[C@H](C3)O1 [Example 323, (1R,3S)-11-chloro-33-fluoro-25-(((2R,7aS)-2-fluorotetrahydro-1H-pyrrolo[1,2-a]pyrrol-7a(5H)-yl)methoxy)-4,6-dioxa-14,15,20,24,26,28-hexaazaheptacyclo[26.3.1.1~1,3~.1~19,23~.0~10,18~.0~13,17~.0~22,27~]tetratriaconta-10,12,15,17,19(33),20,22,24,26-nonaen-5-one] |
| – | – | – | – | 5 | 3 | 8 | 90 | – | – | Cc1cc2[nH]ncc2c2c1CCCOC(=O)C[C@@H]1CCCN(C1)c1nc(OC[C@@]34CCCN3C[C@H](F)C4)nc3c(F)c-2ncc13 [Example 40] |

Continued, molecule first:

| Structure (SMILES) | IC50 ([1]; TR-FRET, read-out: KRAS G12D Binding) [nM] | IC50 ([2]; 2 hours compound pre-incubation, read-out: KRAS G12D Coupled Exchange) [nM] | IC50 ([3]; Homo sapiens, ASPC1, 2 h, read-out: 2 h p-ERK (AsPC-1 cells)) [nM] | IC50 ([4]; Homo sapiens, ASPC1, 72 h, AsPC-1 cells (G12D), 72 h) [nM] | IC50 [1, 5] [nM] | IC50 [2, 6] [nM] | IC50 [3, 7] [nM] | IC50 [4, 8] [nM] | IC50 ([3]; 2 h, read-out: 2 h p-ERK (AsPC-1 cells), IC50) [nM] | IC50 ([4]; AsPC-1, 72 h) [nM] |
| --- | --- | --- | --- | --- | --- | --- | --- | --- | --- | --- |
| C[C@@]12COCCN(C1)c1nc(OC[C@@]34CCCN3C[C@H](F)C4)nc3c(F)c(ncc13)-c1cc(O)cc3ccc(F)c(c13)CCOC(=O)O2 [Example 345, (16S)-23,32-difluoro-8-(((2R,7aS)-2-fluorotetrahydro-1H-pyrrolo[1,2-a]pyrrol-7a(5H)-yl)methoxy)-28-hydroxy-16-methyl-14,17,19-trioxa-3,7,9,11-tetraazahexacyclo[20.7.1.1~2,6~.1~11,16~.0~5,10~.0~26,30~]dotriaconta-1(30),2(32),3,5,7,9,22,24,26,28-decaen-18-one] | – | – | – | – | 3 | 1 | 0.7 | 16 | – | – |
| Cc1cc2[nH]ncc2c2c1CCCCC(=O)N[C@H]1CN(C[C@H]3C[C@H]31)c1nc(OC[C@@]34CCCN3C[C@H](F)C4)nc3c(F)c-2ncc13 [Example 171, (26R,27R,29S)-32-fluoro-4-(((2R,7aS)-2-fluorotetrahydro-1H-pyrrolo[1,2-a]pyrrol-7a(5H)-yl)methoxy)-18-methyl-1,3,5,9,14,15,25-heptaazaheptacyclo[24.4.1.1~6,10~.0~2,7~.0~11,19~.0~12,16~.0~27,29~]dotriaconta-2,4,6,8,10(32),11,13,16,18-nonaen-24-one] | – | – | – | – | 6 | 4 | 106 | 1090 | – | – |
| O=C1OCCc2c(F)cc3[nH]ncc3c2-c2ncc3c(nc(OC[C@@]45CCCN4C[C@H](F)C5)nc3c2F)N2CCC[C@]3(C2)C[C@H](C3)O1 [Example 356, (1R,3S)-10,32-difluoro-24-(((2R,7aS)-2-fluorotetrahydro-1H-pyrrolo[1,2-a]pyrrol-7a(5H)-yl)methoxy)-4,6-dioxa-13,14,19,23,25,27-hexaazaheptacyclo[25.3.1.1~1,3~.1~18,22~.0~9,17~.0~12,16~.0~21,26~]tritriaconta-9,11,14,16,18(32),19,21,23,25-nonaen-5-one] | – | – | – | – | 4 | 3 | 8.2 | 94 | – | – |
| Cc1cc2[nH]ncc2c2c1CCCCC(=O)N[C@]1(C)CCCN(C1)c1nc(OC[C@@]34CCCN3C[C@H](F)C4)nc3c(F)c-2ncc13 [Example 20, (17R)-30-Fluoro-24-(((2R,7aS)-2-fluorotetrahydro-1H-pyrrolo[1,2-a]pyrrol-7a(5H)-yl)methoxy)-9,17-dimethyl-5,6,16,21,23,25,29-heptaazahexacyclo[24.3.1.1˜17,21˜.0˜2,10˜.0˜3,7˜.0˜22,27˜]hentriaconta-1(30),2,4,7,9,22,24,26,28-nonaen-15-one bis(2,2,2-trifluoroacetate)] | – | – | – | – | 20 | 22 | 823 | 2220 | – | – |
| C[C@@]12CCCN(C1)c1nc(OC[C@@]34CCCN3C[C@H](F)C4)nc3c(F)c(ncc13)-c1cc(O)cc3c1[C@@H](CCCC(=O)N2)CCC3 [Example 27, (15R,21R)-31-Fluoro-8-(((2R,7aS)-2-fluorotetrahydro-1H-pyrrolo[1,2-a]pyrrol-7a(5H)-yl)methoxy)-27-hydroxy-15-methyl-3,7,9,11,16-pentaazahexacyclo[19.7.1.1˜2,6˜.1˜11,15˜.0˜5,10˜.0˜25,29˜]hentriaconta-1(29),2(31),3,5,7,9,25,27-octaen-17-one 2,2,2-trifluoroacetate salt] | – | – | – | – | 7 | 5 | 180 | 661 | – | – |
| C[C@@]12CCCN(C1)c1nc(OC[C@@]34CCCN3C[C@H](F)C4)nc3c(F)c(ccc13)-c1cc(O)cc3ccc(F)c(c13)CCCC(=O)N2 [Example 16, (15R)-22,31-Difluoro-8-(((2R,7aS)-2-fluorotetrahydro-1H-pyrrolo[1,2-a]pyrrol-7a(5H)-yl)methoxy)-27-hydroxy-15-methyl-7,9,11,16-tetraazahexacyclo[19.7.1.1˜2,6˜.1˜11,15˜.0˜5,10˜.0˜25,29˜]hentriaconta-1(28),2(31),3,5,7,9,21,23,25(29),26-decaen-17-one bis(2,2,2-trifluoroacetate)] | – | – | – | – | 6 | 5 | 92 | 1200 | – | – |
| O=C1CCCCc2c(Cl)cc3[nH]ncc3c2-c2ncc3c(nc(OC[C@@]45CCCN4C[C@H](F)C5)nc3c2F)N2CCC[C@H](C2)O1 [Example 36, (17R)-9-Chloro-30-fluoro-24-(((2R,7aS)-2-fluorotetrahydro-1H-pyrrolo[1,2-a]pyrrol-7a(5H)-yl)methoxy)-16-oxa-5,6,21,23,25,29-hexaazahexacyclo[24.3.1.1˜17,21˜.0˜2,10˜.0˜3,7˜.0˜22,27˜]hentriaconta-1(30),2,4,7,9,22,24,26,28-nonaen-15-one bis(2,2,2-trifluoroacetate)] | – | – | – | – | 3 | 1 | 8 | 111 | – | – |
